Values after ≈ are worked out from the molar mass of the structure shown. Values joined by “and” are separate entries in the source; they are usually repeats but may differ in a detail not shown here. Equal entries are not always repeated. “Also recorded” adds a separate entry of the source. Where two headings read alike, the source gives them in different places.
Assays:
leukemia cell line P388 = system: leukemia cell line P388; set-up: method as in PMID 17958319; conditions: cited from earlier work
PTP1B [1] = system: PTP1B; set-up: method as in PMID 25819098; conditions: read-out: IC50 value against PTP1B; cited from earlier work
[2] = system: Bacillus subtilis DSM 347; assay: Antimicrobial activity against Bacillus subtilis; format: cell-based; conditions: concentrations of 100 μM (stated for 1)
Description: (§1) Antimicrobial activities of compounds 1 and 2 against Bacillus subtilis DSM 347, Staphylococcus lentus DSM 6672, Propionibacterium acnes, Xanthomonas campestris, and Septoria tritici, as well as the cytotoxic activity against the cell lines HepG3 (hepatocellular carcinoma) and HT29 (colon adenocarcinoma) were assayed as described by Schneemann et al. [27].

Propionibacterium acnes = assay: Antimicrobial activity against Propionibacterium acnes; format: cell-based
Description: as §1

Septoria tritici = assay: Antimicrobial activity against Septoria tritici; format: cell-based
Description: (§2) Antimicrobial activities of compounds 1 and 2 against Bacillus subtilis DSM 347, Staphylococcus lentus DSM 6672, Propionibacterium acnes, Xanthomonas campestris, and Septoria tritici, as well as the cytotoxic activity against the cell lines HepG3 (hepatocellular carcinoma) and HT29 (colon adenocarcinoma) were assayed as described by Schneemann et al. [27]. The effect on the growth of human pathogenic yeast, Candida albicans DSM 1386, was measured according to Ohlendorf et al. [28]. The activity of compound 2 against the dermatophyte Trichophyton mentagrophytes was tested as described by Nagel et al. [29].

HepG2 = assay: Cytotoxic activity against HepG2; format: cell-based; conditions: test concentrations up to 50 μM
Description: as §2

[3] = system: Staphylococcus lentus DSM 6672; assay: Antimicrobial activity against Staphylococcus lentus; format: cell-based; conditions: concentrations of 100 μM (stated for 1)
Description: as §1

[4] = system: Candida albicans DSM 1386; assay: Growth of human pathogenic yeast Candida albicans; format: cell-based; conditions: concentrations of 100 μM
Description: as §2

Xanthomonas campestris = assay: Antimicrobial activity against Xanthomonas campestris; format: cell-based; conditions: concentrations of 100 μM (stated for 1)
Description: as §1

[5] = target: T1, human recombinant protein tyrosine phosphatase 1B (PTP1B) (Homo sapiens, UniProt P18031); assay: PTP1B inhibition assay with substrate IR5 (Biomol green phosphate detection); format: biochemical
T1 construct: purchased Biomol SE332-0050
Description: The effect of 1 and 2 on human recombinant protein tyrosine phosphatase 1B (PTP1B) was tested in microtiter plates. […] After warming for 10 min to the assay temperature of 30 °C 5 μL of human recombinant PTP1B (Biomol; CatNo. SE332-0050) stock solution (1 ng/μL) were added. The reaction was started with 50 μL of the substrate IR5 (insulin receptor amino acids 1142–1153 with pTyr at position 1146 (Biosyntan, Berlin, Germany) dissolved in PTP1B assay buffer to a concentration of 0.15 mM. The phosphopeptid IR5 comprises the amino acid sequence Thr-Arg-Asp-Ile-p[…]COOH and is part of the autophosphorylation domain of the insulin receptor (IR). After an incubation period of 25 min at 30°C the reaction was stopped by adding 150 μL of Biomol green (Biomol, CatNo. AK111-0250). PTP1B dephosphorylates the IR5 substrate resulting in the release of orthophosphate which was quantified after incubating for 20 min at 620 nm using the microtiter plate reader Infinite M200 (Tecan Group Ltd., Männedorf, Switzerland). […] IC50 values were determined as duplicates.

[6] = system: HT29 (colon adenocarcinoma); assay: Cytotoxic activity against HT29; format: cell-based; conditions: test concentrations up to 50 μM (stated for 1)
Description: as §1

Rhizoctonia solani = system: Rhizoctonia solani; set-up: method as in PMID 5169000; conditions: cited from earlier work
[7] = system: Colletotrichum gleosporoides; set-up: method as in PMID 25517217; conditions: cited from earlier work
Botrytis cinerea = system: Botrytis cinerea; set-up: method as in PMID 25517217; conditions: cited from earlier work
[8] = system: etiolated wheat coleoptile; set-up: method as in PMID 8229019; conditions: concentration of 1 mM; cited from earlier work
[9] = system: Trichophyton mentagrophytes; assay: Activity against the dermatophyte Trichophyton mentagrophytes; format: cell-based; conditions: read-out: inhibition of T. mentagrophytes in comparison to the positive control clotrimazole, concentration of 100 μM
Description: as §2

Arthrobacter citreus = system: Arthrobacter citreus; set-up: method as in PMID 646581; conditions: cited from earlier work
Bacillus brevis = system: Bacillus brevis; set-up: method as in PMID 646581; conditions: cited from earlier work
[10] = system: dermatophytes, including Trichophyton rubrum; set-up: method as in PMID 5169000; conditions: cited from earlier work
Sarcina lutea = system: Sarcina lutea; set-up: method as in PMID 646581; conditions: cited from earlier work
[11] = system: glycogen synthase kinase GSK-3 β; set-up: method as in PMID 27801816; conditions: cited from earlier work
PTP1B [12] = system: PTP1B; set-up: method as in earlier work; conditions: substrate p-nitrophenyl phosphate; ref 13 (McCain et al.); read-out: IC50 value against PTP1B; cited from earlier work
Micrococcus flavus = system: Micrococcus flavus; set-up: method as in PMID 5169000; conditions: cited from earlier work
[13] = set-up: method as in doi:10.1007/s11802-014-2216-2; conditions: cited from earlier work

T1 sequence (P18031 1-322 limits assumed): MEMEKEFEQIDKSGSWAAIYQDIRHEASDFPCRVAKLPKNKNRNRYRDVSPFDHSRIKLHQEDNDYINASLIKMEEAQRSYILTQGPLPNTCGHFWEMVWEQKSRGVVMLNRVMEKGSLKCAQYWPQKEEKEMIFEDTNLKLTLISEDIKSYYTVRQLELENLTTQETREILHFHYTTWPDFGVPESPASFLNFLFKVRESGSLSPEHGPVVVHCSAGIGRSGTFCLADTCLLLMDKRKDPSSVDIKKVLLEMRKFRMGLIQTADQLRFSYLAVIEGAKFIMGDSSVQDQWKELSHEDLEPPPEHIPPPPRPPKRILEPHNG

Molecule: CC(=O)C(C)c1oc(C)c(C)c(=O)c1C (stereo not shown) [2,3,5-trimethyl-6-(3-oxobutan-2-yl)-4H-pyran-4-one]
- cytotoxic effects on P388 (leukemia cell line P388): cytotoxic effects

Molecule: C/C=C/[C@H]1CC(=O)c2cc(C)c(O)c(C)c2O1 [(2R)-2,3-dihydro-7-hydroxy-6,8-dimethyl-2-[(E)-prop-1-enyl]chromen-4-one]
- cytotoxic effects on P388 (leukemia cell line P388): cytotoxic effects

Molecule: CCCCCCCCCCCCCCCC(=O)C1=C(O)[C@@H](CO)OC1=O [RK-682, (R)-4-Hydroxy-5-(hydroxymethyl)-3-(1-oxohexadecyl)-2(5H)-furanone]
- IC50 (PTP1B [1]): 4.5 µM

Molecule: CC1CCCC(CC2Cc3c(O)c(O)cc(O)c3C(=O)O2)O1 (stereo not shown) [compound 1, Asperentin B]
- antibiotic activity against Bacillus subtilis [2]: No antibiotic activity; also recorded: did not exhibit
- inhibition at 100 µM (Propionibacterium acnes; Cutibacterium acnes, 100 μM test concentration): 57%
- antibiotic activity against Septoria tritici (in words) (Septoria tritici; concentrations of 100 μM): No antibiotic activity
- cytotoxic effects against HepG2 (HepG2): No activities were not found
- antibiotic activity against Staphylococcus lentus [3]: No antibiotic activity; also recorded: did not exhibit
- antibiotic activity against Candida albicans [4]: No antibiotic activity
- antibiotic activity against Xanthomonas campestris (Xanthomonas campestris): No antibiotic activity; also recorded: did not exhibit
- IC50 ([5]; in vitro, duplicates, read-out: IC50 value against PTP1B): 2.05 µM and 2 µM
- cytotoxic effects against HT29 [6]: did not exhibit cytotoxic activities

Molecule: C[C@H]1CCC[C@H](C[C@H]2Cc3cc(O)cc(O)c3C(=O)O2)O1 [compound 2, asperentin]
- antibiotic activity against Bacillus subtilis [2]: did not exhibit; also recorded: not inhibited
- minimum inhibitory concentration (MIC), Rhizoctonia solani (Rhizoctonia solani): 75 µg/mL (≈ 257 µM)
- activity against P. acnes (in words) (Propionibacterium acnes): did not show any activity
- activity against Colletotrichum gleosporoides [7]: active
- activity against Botrytis cinerea (Botrytis cinerea): active
- growth inhibition, etiolated wheat coleoptile assay [8]: 81%
- inhibition at 100 µM [9]: 100%
- MIC, Arthrobacter citreus (Arthrobacter citreus): 1 µg/mL (≈ 3.42 µM)
- MIC, Bacillus brevis (Bacillus brevis): 0.05 µg/mL (≈ 0.171 µM)
- inhibition at 100 µM (Septoria tritici; Zymoseptoria tritici, read-out: inhibition of S. tritici in comparison to the positive control clotrimazole, concentration of 100 μM): 83%
- minimum inhibitory concentration (MIC), five dermatophytes including Trichophyton rubrum [10]: 75 µg/mL (≈ 257 µM)
- antibiotic activity against Staphylococcus lentus [3]: did not exhibit
- antibiotic activity against Xanthomonas campestris (Xanthomonas campestris): did not exhibit
- MIC, Sarcina lutea (Sarcina lutea): 2000 µg/mL (≈ 6840 µM)
- inhibition of PTP1B enzymatic activity (in words) [5]: did not show any activity; also recorded: did not show any inhibition
- cytotoxic effects against HT29 [6]: did not exhibit cytotoxic activities

Molecule: C[C@H]1CCC[C@@H](C[C@H]2Cc3cc(O)cc(O)c3C(=O)O2)O1 [isoasperentin, reference compound]
- growth inhibition, etiolated wheat coleoptile assay [8]: 100%

Molecule: Cc1cc2cc(O)cc(O)c2c2oc(=O)cc(O)c12 [pannorin]
- inhibition of GSK-3 β (in words) [11]: inhibitor

Molecule: Cc1ccc(C(=O)Nc2ccc(S(=O)(=O)O)c3cc(S(=O)(=O)O)cc(S(=O)(=O)O)c23)cc1NC(=O)c1cccc(NC(=O)Nc2cccc(C(=O)Nc3cc(C(=O)Nc4ccc(S(=O)(=O)O)c5cc(S(=O)(=O)O)cc(S(=O)(=O)O)c45)ccc3C)c2)c1 [suramin]
- IC50 (PTP1B [12]): 11 µM

Molecule: Monoacetyl asperentin [reference compound]
- MIC, Micrococcus flavus (Micrococcus flavus): 75 µg/mL
- MIC, four dermatophytes including Trichophyton rubrum [10]: 75 µg/mL

Molecule: brevianamide W
- antioxidant activity [13]: antioxidant activity

Molecule: dimethyl asperentin [reference compound]
- MIC, Arthrobacter citreus (Arthrobacter citreus): > 100 µg/mL
- MIC, Bacillus brevis (Bacillus brevis): 10 µg/mL
- MIC, Sarcina lutea (Sarcina lutea): > 100 µg/mL

From publication PMC5484141, “Asperentin B, a New Inhibitor of the Protein Tyrosine Phosphatase 1B” (Marine Drugs, 2017)
